In patent publication US7728012B2, “Carboxamide compounds and their use as calpain inhibitors” (Abbott GmbH & Co. KG, priority 2006, dated 2010):

Legend:
Format in all cases: biochemical
[1] = target: T1, calpain-I isolated from human erythrocytes (Homo sapiens, UniProt P07384); test: Calpain I kinetic fluorescence enzyme inhibition assay; conditions: apparent Ki from IC50 by Cheng-Prussoff; average of 2 to 4 dose-effect plots
T1 construct: calpain-I—isolated from human erythrocytes; purchased Calbiochem 208713; host or cells: human erythrocytes (tissue isolate)
T1 sequence (P07384 1-714): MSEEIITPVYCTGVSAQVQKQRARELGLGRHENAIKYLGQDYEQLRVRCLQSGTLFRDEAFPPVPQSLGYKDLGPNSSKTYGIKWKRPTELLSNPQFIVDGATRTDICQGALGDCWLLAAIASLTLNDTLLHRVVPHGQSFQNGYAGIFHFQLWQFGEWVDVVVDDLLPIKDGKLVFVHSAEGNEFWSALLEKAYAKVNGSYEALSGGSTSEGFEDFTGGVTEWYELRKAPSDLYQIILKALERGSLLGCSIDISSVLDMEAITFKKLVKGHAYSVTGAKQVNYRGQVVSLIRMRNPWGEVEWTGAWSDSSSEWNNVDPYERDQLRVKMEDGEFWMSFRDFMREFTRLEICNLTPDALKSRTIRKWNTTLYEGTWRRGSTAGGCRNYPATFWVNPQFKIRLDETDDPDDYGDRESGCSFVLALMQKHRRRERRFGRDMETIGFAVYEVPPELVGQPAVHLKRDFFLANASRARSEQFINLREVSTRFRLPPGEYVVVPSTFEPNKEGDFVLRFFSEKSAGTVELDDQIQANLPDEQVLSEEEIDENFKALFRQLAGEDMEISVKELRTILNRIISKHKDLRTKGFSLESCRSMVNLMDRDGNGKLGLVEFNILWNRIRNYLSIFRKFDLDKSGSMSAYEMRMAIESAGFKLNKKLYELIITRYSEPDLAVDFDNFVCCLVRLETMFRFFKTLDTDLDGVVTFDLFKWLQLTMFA
T1 sequence (P04632 1-268 partner): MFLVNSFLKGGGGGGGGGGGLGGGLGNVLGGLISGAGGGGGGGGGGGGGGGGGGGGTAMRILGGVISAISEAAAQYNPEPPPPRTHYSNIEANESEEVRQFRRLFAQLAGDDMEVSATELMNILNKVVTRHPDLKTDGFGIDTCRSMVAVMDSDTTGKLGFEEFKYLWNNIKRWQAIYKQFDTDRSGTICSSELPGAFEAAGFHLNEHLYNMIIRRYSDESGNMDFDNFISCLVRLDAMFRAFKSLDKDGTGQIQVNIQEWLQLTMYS

[2] = target: T2, cathepsin L isolated from human liver (Homo sapiens, UniProt P07711); test: Cathepsin L kinetic fluorescence enzyme inhibition assay; conditions: selectivity ratio versus calpain I
T2 construct: cathepsin L—isolated from human liver; purchased Calbiochem 219402; host or cells: human liver (tissue isolate)
T2 sequence (P07711 114-333): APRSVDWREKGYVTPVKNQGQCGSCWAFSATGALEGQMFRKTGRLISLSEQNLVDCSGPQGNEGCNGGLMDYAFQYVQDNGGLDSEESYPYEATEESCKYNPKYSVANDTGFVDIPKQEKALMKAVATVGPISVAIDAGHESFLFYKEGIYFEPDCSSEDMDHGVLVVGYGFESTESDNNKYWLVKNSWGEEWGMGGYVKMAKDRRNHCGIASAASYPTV
How it was run: (§1)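 cat B 0.25 nM + Z-Phe-Arg-AMC 100 μM; cat L 1 nM + Z-Phe-Arg-AMC 2 μM; cat S 0.5 nM (E. coli-expressed) + Z-Val-Val-Arg-AMC 20 μM. 50 mM MES pH 6.0, 2.5 mM L-Cys, RT. Ex 390/em 460, kinetic; Ki app = Cheng-Prusoff from IC50, mean of 2–4 curves.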

[3] = target: T3, cathepsin B isolated from human liver (Homo sapiens, UniProt P07858); test: Cathepsin B kinetic fluorescence enzyme inhibition assay; conditions: selectivity ratio versus calpain I
T3 construct: cathepsin B—isolated from human liver; purchased Calbiochem 219362; host or cells: human liver (tissue isolate)
Experimental: (§2) The following solutions and buffers were employed: • HBS (for 40 ml): 800 μl M HEPES; 2.16 ml 100 mM KCl; 4.8 ml 1M NaCl; 3.59 ml 5% glucose; 60 μl μM MgSO4; 400 μl 100 mM Na pyruvate, 28.19 ml water; pH 7.2-7.5. • lysis buffer (for 20 ml): 400 μl M Tris pH 8.2; 2.74 ml 1M NaCl; 520 μl 0.5M EDTA; 2 ml 10% triton X-100; 0.8 ml (=1:25) CompletePlus (1 tablet/2 ml H2O); 200 μl 100 mM Pefabloc; 13.34 ml water, pH 8.2. • TBST (10×) (for 1 l): 100 mM Tris (12.1 g); 1.5M NaCl (87 g); 1% Tween 20 (10 g), adjusted to pH 8. I Enzyme Inhibition In Vitro: • Testing for blockade of the corresponding enzymic activities was carried out by means of kinetic fluorescence assays (excitation 390 nm, emission 460 nm). • Apparent Ki values were calculated from the experimentally determined IC50 values by the Cheng-Prussoff relation assuming a reversible competitive enzyme inhibition. The Km values of the substrates used under the assay conditions indicated above were: 90 μM (Z-Phe-Arg-AMC, cathepsin B), 10 μM (Z-Gly-Pro-Arg-AMC, cathepsin K), 2 μM (Z-Phe-Arg-AMC, cathepsin L), and 30 μM (Z-Val-Val-Arg-AMC, cathepsin S). • The indicated Ki values are averages of the inhibition constants calculated on the basis of 2 to 4 independent dose-effect plots.
(§3) The following assays were used: • 1. Calpain I: • 20 nM calpain-I—isolated from human erythrocytes (Calbiochem #208713), 100 μM Suc-Leu-Tyr-AMC (Bachem #1-1355) as substrate in buffer with 62 mM imidazole, 0.3 mM CaCl2, 0.10% CHAPS, 0.05% BSA, 1 mM DTT at pH 7.3 and room temperature. • 2. Cathepsin B: • 0.25 nM cathepsin B—isolated from human liver (Calbiochem #219362), 100 μM Z-Phe-Arg-AMC (Bachem #I-1160) as substrate 50 mM MES, 2 mM EDTA, 0.05% Brij 35, 2.5 mM L-cysteine, pH 6.0, room temperature. • 3. Cathepsin K: • 3 nM cathepsin K—activated from recombinant human procathepsin K from E. coli (Calbiochem #342001), 10 μM Z-Gly-Pro-Arg-AMC (Biomol #P-142) as substrate in 50 mM MES, 2 mM EDTA, 0.05% Brij 35, 2.5 mM L-cysteine, pH 6.0, room temperature. • 4. Cathepsin L: • 1 nM cathepsin L—isolated from human liver (Calbiochem #219402), 2 μM Z-Phe-Arg-AMC (Bachem #1-1160) as substrate in 50 mM MES, 2 mM EDTA, 0.05% Brij 35, 2.5 mM L-cysteine, pH 6.0, room temperature. • 5. Cathepsin S: • 0.5 nM recombinant human cathepsin S from E. coli (Calbiochem #219343), 20 μM Z-Val-Val-Arg-AMC (Bachem #1-1540) as substrate in 50 mM MES, 2 mM EDTA, 0.05% Brij 35, 2.5 mM L-cysteine, pH 6.0, room temperature. • The results of the in vitro determination are indicated in Table 1. The following abbreviations are used in Table 1: • The “Calpain activity” column, ++ stands for a calpain Ki (Ki(calpain)) of ≦40 nM and + means: 40 nM<Ki(Calpain)≦100 nM. • The “Sel. cat. B” column indicates the Ki(cathepsin B)/Ki(calpain) ratio. In this connection, ++ means a Ki(cathepsin B)/Ki(calpain) ratio of ≧30 and + means 10≦Ki(cathepsin B)/Ki(calpain)<30. • The “Sel. cat. K” column indicates the Ki(cathepsin K)/Ki(calpain) ratio. In this connection, ++ means a Ki(cathepsin K)/Ki(calpain) ratio of ≧30 and + means 10≦Ki(cathepsin K)/Ki(calpain)<30. • The “Sel. cat. L” column indicates the Ki(cathepsin L)/Ki(calpain) ratio. In this connection, ++ means a Ki(cathepsin L)/Ki(calpain) ratio of ≧50 and + means 30≦Ki(cathepsin L)/Ki(calpain)<50. • The “Sel. cat. S” column indicates the Ki(cathepsin S)/Ki(calpain) ratio. In this connection, ++ means a Ki(cathepsin S)/Ki(calpain) ratio of ≧100 and + means 50≦Ki(cathepsin S)/Ki(calpain)<100.

[4] = target: T4, recombinant human cathepsin S (Homo sapiens, UniProt P25774); test: Cathepsin S kinetic fluorescence enzyme inhibition assay; conditions: selectivity ratio versus calpain I
T4 construct: purchased Calbiochem 219343; host or cells: E. coli
T4 sequence (P25774 115-331): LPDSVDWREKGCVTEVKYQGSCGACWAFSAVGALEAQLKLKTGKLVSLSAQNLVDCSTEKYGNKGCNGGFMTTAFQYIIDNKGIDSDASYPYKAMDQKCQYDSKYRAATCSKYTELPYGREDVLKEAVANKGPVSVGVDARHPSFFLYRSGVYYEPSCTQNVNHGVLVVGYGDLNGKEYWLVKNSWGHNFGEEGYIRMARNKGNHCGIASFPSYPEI
How it was run: as §1

[5] = target: T5, cathepsin K activated from recombinant human procathepsin K (Homo sapiens, UniProt P43235); test: Cathepsin K kinetic fluorescence enzyme inhibition assay; conditions: selectivity ratio versus calpain I
T5 construct: purchased Calbiochem 342001; host or cells: E. coli
T5 sequence (P43235 115-329): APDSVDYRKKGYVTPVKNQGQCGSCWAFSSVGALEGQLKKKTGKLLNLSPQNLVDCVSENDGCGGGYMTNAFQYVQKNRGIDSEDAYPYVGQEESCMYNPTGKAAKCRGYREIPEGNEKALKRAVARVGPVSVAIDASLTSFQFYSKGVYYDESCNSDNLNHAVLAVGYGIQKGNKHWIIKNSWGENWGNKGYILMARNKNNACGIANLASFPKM
Experimental: as §2, §3

| Molecule | Ki [1] | Sel cat. L (Ki(cathepsin L)/Ki(calpain) ratio) [2] | Sel cat. B (Ki(cathepsin B)/Ki(calpain) ratio) [3] | Sel cat. S (Ki(cathepsin S)/Ki(calpain) ratio) [4] | Sel cat. K (Ki(cathepsin K)/Ki(calpain) ratio) [5] |
| --- | --- | --- | --- | --- | --- |
| NC(=O)C(=O)C(Cc1cccs1)NC(=O)c1cccnc1-n1ccc(-c2ccccc2)n1 (stereo not shown) [Example 40, N-[3-Amino-2,3-dioxo-1-(2-thienylmethyl)propyl]-2-(3-phenyl-1H-pyrazol-1-yl)pyridine-3-carboxamide] | ≤ 40 nM | ++ (Ki(cathepsin L)/Ki(calpain) ratio of ≧50) | + (10≦Ki(cathepsin B)/Ki(calpain)<30) | ++ (Ki(cathepsin S)/Ki(calpain) ratio of ≧100) | – |
| CN1CCN(c2ccc(-c3ccn(-c4ncccc4C(=O)NC(Cc4ccccc4)C(=O)C(N)=O)n3)cc2)CC1 (stereo not shown) [Example 68, N-(3-Amino-1-benzyl-2,3-dioxopropyl)-2-{3-[4-(4-methylpiperazin-1-yl)phenyl]-1H-pyrazol-1-yl}nicotinamide] | 40 to 100 nM | – | – | ++ (Ki(cathepsin S)/Ki(calpain) ratio of ≧100) | + (10≦Ki(cathepsin K)/Ki(calpain)<30) |
| Cc1cn(-c2ncccc2C(=O)NC(Cc2ccccc2)C(=O)C(N)=O)nc1-c1ccccc1 (stereo not shown) [Example 84, N-(3-Amino-1-benzyl-2,3-dioxopropyl)-2-(4-methyl-3-phenyl-1H-pyrazol-1-yl)nicotinamide] | ≤ 40 nM | ++ (Ki(cathepsin L)/Ki(calpain) ratio of ≧50) | + (10≦Ki(cathepsin B)/Ki(calpain)<30) | ++ (Ki(cathepsin S)/Ki(calpain) ratio of ≧100) | – |
| NC(=O)C(=O)C(Cc1ccc(Br)cc1)NC(=O)c1cccnc1-n1ccc(-c2ccccc2)n1 (stereo not shown) [Example 122, N-{3-Amino-1-[(4-bromophenyl)methyl]-2,3-dioxopropyl}-2-(3-phenyl-1H-pyrazol-1-yl)pyridine-3-carboxamide] | ≤ 40 nM | ++ (Ki(cathepsin L)/Ki(calpain) ratio of ≧50) | ++ (Ki(cathepsin B)/Ki(calpain) ratio of ≧30) | ++ (Ki(cathepsin S)/Ki(calpain) ratio of ≧100) | – |
| CC(C)c1ccc2c(c1)-c1nn(-c3ncccc3C(=O)NC(Cc3ccccc3)C(=O)C(N)=O)cc1CO2 (stereo not shown) [Example 144, N-[3-Amino-2,3-dioxo-1-(phenylmethyl)propyl]-2-[8-(1-methylethyl)chromeno[4,3-c]pyrazol-2(4H)-yl]pyridine-3-carboxamide] | ≤ 40 nM | ++ (Ki(cathepsin L)/Ki(calpain) ratio of ≧50) | + (10≦Ki(cathepsin B)/Ki(calpain)<30) | ++ (Ki(cathepsin S)/Ki(calpain) ratio of ≧100) | – |
| NC(=O)C(=O)C(Cc1ccccc1)NC(=O)c1cccnc1-n1ccc(-c2cccc3cnccc23)n1 (stereo not shown) [Example 156, N-[3-Amino-2,3-dioxo-1-(phenylmethyl)propyl]-2-(3-isoquinolin-5-yl-1H-pyrazol-1-yl)pyridine-3-carboxamide] | – | + (30≦Ki(cathepsin L)/Ki(calpain)<50) | + (10≦Ki(cathepsin B)/Ki(calpain)<30) | ++ (Ki(cathepsin S)/Ki(calpain) ratio of ≧100) | – |
| N#Cc1cnc(-n2ccc(-c3ccccc3F)n2)c(C(=O)NC(Cc2ccccc2)C(=O)C(N)=O)c1 (stereo not shown) [Example 188, N-[3-Amino-2,3-dioxo-1-(phenylmethyl)propyl]-5-cyano-2-[3-(2-fluorophenyl)-1H-pyrazol-1-yl]pyridine-3-carboxamide] | 40 to 100 nM | ++ (Ki(cathepsin L)/Ki(calpain) ratio of ≧50) | – | – | ++ (Ki(cathepsin K)/Ki(calpain) ratio of ≧30) |
| N-{3-Amino-1-[(4-fluorophenyl)methyl]-2,3-dioxopropyl}-2-[3-(2,3-dichlorophenyl)-1H-pyrazol-1-yl]pyridine-3-carboxamide [Example 161] | – | + (30≦Ki(cathepsin L)/Ki(calpain)<50) | + (10≦Ki(cathepsin B)/Ki(calpain)<30) | ++ (Ki(cathepsin S)/Ki(calpain) ratio of ≧100) | – |
